Data reported in PubChem BioAssay AID248 (DTP/NCI, 2004).
Inconclusive results and toxic doses are left out.

Test system: L1210 leukemia ip in BDF1 mice, survival T/C
Assay: NCI In Vivo Anticancer Drug Screen. Data for tumor model L1210 Leukemia (intraperitoneal) in B6D2F1 (BDF1) mice
Conditions: endpoint: mean survival time, higher = longer survival
Procedure, shortened: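 Tumor cells were implanted, animals were treated, and survival was followed. The result divides the treated measurement by the vehicle-control measurement.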

[1] = dose: 100.0 mg/kg/injection, schedule: Q01DX009 (ip), vehicle: Klucel (hydroxypropylcellulose) (HPC)
[2] = dose: 200.0 mg/kg/injection, schedule: Q01DX009 (ip), vehicle: Klucel (hydroxypropylcellulose) (HPC)
[3] = dose: 6.25 mg/kg/injection, schedule: Q04DX003 (ip), vehicle: saline
[4] = dose: 12.5 mg/kg/injection, schedule: Q04DX003 (ip), vehicle: saline
[5] = dose: 25.0 mg/kg/injection, schedule: Q04DX003 (ip), vehicle: saline
[6] = dose: 100.0 mg/kg/injection, schedule: Q01DX001 (ip), vehicle: saline
[7] = dose: 100.0 mg/kg/injection, schedule: Q01DX009 (ip), vehicle: saline
[8] = dose: 200.0 mg/kg/injection, schedule: Q01DX001 (ip), vehicle: saline
[9] = dose: 400.0 mg/kg/injection, schedule: Q01DX001 (ip), vehicle: saline
[10] = dose: 50.0 mg/kg/injection, schedule: Q01DX009 (ip), vehicle: saline with Tween-80
[11] = dose: 25.0 mg/kg/injection, schedule: Q01DX009 (ip), vehicle: saline
[12] = dose: 100.0 mg/kg/injection, schedule: Q04DX002 (ip), vehicle: Klucel (hydroxypropylcellulose) (HPC)
[13] = dose: 200.0 mg/kg/injection, schedule: Q04DX002 (ip), vehicle: Klucel (hydroxypropylcellulose) (HPC)
[14] = dose: 400.0 mg/kg/injection, schedule: Q04DX002 (ip), vehicle: Klucel (hydroxypropylcellulose) (HPC)
[15] = dose: 50.0 mg/kg/injection, schedule: Q04DX003 (ip), vehicle: saline
[16] = dose: 100.0 mg/kg/injection, schedule: Q04DX003 (ip), vehicle: saline
[17] = dose: 200.0 mg/kg/injection, schedule: Q04DX003 (ip), vehicle: saline

For `CC1CN1CC1CO1` (configuration not stated), the T/C (dose: 0.5 mg/kg/injection, schedule: Q01DX001 (ip), vehicle: saline) was 98 % of control, the T/C (dose: 0.5 mg/kg/injection, schedule: Q01DX009 (ip), vehicle: acetone) was 97 % of control and the T/C (dose: 0.5 mg/kg/injection, schedule: Q04DX003 (ip), vehicle: acetone) was 104 % of control. The T/C (dose: 1.0 mg/kg/injection, schedule: Q01DX001 (ip), vehicle: saline) was 95 % of control, the T/C (dose: 1.0 mg/kg/injection, schedule: Q01DX009 (ip), vehicle: acetone) was 96 % of control and the T/C (dose: 1.0 mg/kg/injection, schedule: Q04DX003 (ip), vehicle: acetone) was 101 % of control. For the same compound, the T/C (dose: 2.0 mg/kg/injection, schedule: Q01DX001 (ip), vehicle: saline) was 98 % of control, the T/C (dose: 2.0 mg/kg/injection, schedule: Q01DX009 (ip), vehicle: acetone) was 100 % of control and the T/C (dose: 2.0 mg/kg/injection, schedule: Q04DX003 (ip), vehicle: acetone) was 104 % of control. For the same compound, the T/C (dose: 2.97 mg/kg/injection, schedule: Q01DX009 (ip), vehicle: acetone) was 97 % of control, the T/C (dose: 4.5 mg/kg/injection, schedule: Q01DX009 (ip), vehicle: acetone) was 97 % of control and the T/C (dose: 6.75 mg/kg/injection, schedule: Q01DX009 (ip), vehicle: acetone) was 115 % of control. For the same compound, the T/C (dose: 9.9 mg/kg/injection, schedule: Q01DX009 (ip), vehicle: acetone) was 102 % of control, the T/C (dose: 15.0 mg/kg/injection, schedule: Q01DX009 (ip), vehicle: acetone) was 100 % of control and the T/C (dose: 22.5 mg/kg/injection, schedule: Q01DX009 (ip), vehicle: acetone) was 94 % of control.
For `CC(C)COP(=O)(Cc1ccccc1)OCC(C)C`, the T/C [1] was 110 % of control and the T/C [2] was 101 % of control.
`O=c1c2ncn(C3OC(CO)C(O)C3O)c2nc2n1N=CC(O)N2` (configuration not stated) was tested, and the T/C (dose: 100.0 mg/kg/injection, schedule: Q01DX005 (ip), vehicle: saline) was 120 % of control and the T/C (dose: 200.0 mg/kg/injection, schedule: Q01DX005 (ip), vehicle: saline) was 120 % of control.
For `NC(=S)NN=C1CCCC1`, the T/C [3] was 96 % of control, the T/C [4] was 94 % of control and the T/C [5] was 94 % of control.
In the case of `O=C(OCC1OC(n2cnc3c(=S)nc[nH]c32)C(OC(=O)c2ccc(Cl)cc2)C1OC(=O)c1ccc(Cl)cc1)c1ccc(Cl)cc1` (configuration not stated), the T/C [6] is reported as 104 % of control, the T/C [7] is reported as 122 % of control and the T/C [8] is reported as 101 % of control. The T/C [9] was 113 % of control and the T/C (dose: 800.0 mg/kg/injection, schedule: Q01DX009 (ip), vehicle: saline) was 166 % of control.
In the case of `O=P(N1CC1)(N1CC1)C12CC3CC(CC(C3)C1)C2`, the T/C (dose: 25.0 mg/kg/injection, schedule: Q01DX009 (ip), vehicle: saline with Tween-80) is reported as 170 % of control and the T/C [10] is reported as 243 % of control.
In the case of `CS(=O)c1ccc(/C=C2/C=Cc3ccccc32)cc1` (configuration not stated), the T/C [1] is reported as 91 % of control, the T/C [2] is reported as 103 % of control and the T/C (dose: 400.0 mg/kg/injection, schedule: Q01DX009 (ip), vehicle: Klucel (hydroxypropylcellulose) (HPC)) is reported as 101 % of control.
`CCC(=O)NCC(=O)O` was tested, and the T/C (dose: 6.25 mg/kg/injection, schedule: Q01DX009 (ip), vehicle: saline) was 103 % of control, the T/C [3] was 96 % of control and the T/C (dose: 12.5 mg/kg/injection, schedule: Q01DX009 (ip), vehicle: saline) was 95 % of control. The T/C [4] was 96 % of control, the T/C [11] was 92 % of control and the T/C [5] was 100 % of control.
For `CNCCCN1c2ccccc2C(C)(C)c2ccccc21`, the T/C [6] was 97 % of control.
With `O=C(NNC(=O)c1ccccc1)c1ccccc1` the T/C [12] was 101 % of control, the T/C [13] was 101 % of control and the T/C [14] was 101 % of control.
In the case of `O=C(OCc1ccc([N+](=O)[O-])o1)c1ccc(Cl)cc1`, the T/C [6] is reported as 97 % of control, the T/C [8] is reported as 101 % of control and the T/C [9] is reported as 92 % of control.
In the case of `CCC(C)c1cc(CN(C)C)cc(C(C)CC)c1O` (configuration not stated), the T/C (dose: 12.5 mg/kg/injection, schedule: Q01DX009 (ip), vehicle: Klucel (hydroxypropylcellulose) (HPC)) is reported as 105 % of control, the T/C (dose: 25.0 mg/kg/injection, schedule: Q01DX009 (ip), vehicle: Klucel (hydroxypropylcellulose) (HPC)) is reported as 105 % of control and the T/C (dose: 50.0 mg/kg/injection, schedule: Q01DX009 (ip), vehicle: Klucel (hydroxypropylcellulose) (HPC)) is reported as 96 % of control. For the same compound, the T/C [1] was 102 % of control.
With `Cc1ccc2c(c1)C=CC(C#N)N2C(=O)OCc1ccccc1` (configuration not stated) the T/C (dose: 100.0 mg/kg/injection, schedule: Q04DX003 (ip), vehicle: saline with Tween-80) was 95 % of control, the T/C (dose: 200.0 mg/kg/injection, schedule: Q04DX003 (ip), vehicle: saline with Tween-80) was 97 % of control and the T/C (dose: 400.0 mg/kg/injection, schedule: Q04DX003 (ip), vehicle: saline with Tween-80) was 94 % of control.
`O=C(CCl)NC1=C(Cl)C(=O)c2ccccc2C1=O` was tested, and the T/C (dose: 75.0 mg/kg/injection, schedule: Q01DX001 (ip), vehicle: saline) was 93 % of control.
In the case of `NC(=O)C1=CN(Cc2ccc(F)cc2)c2ccccc2C1`, the T/C (dose: 100.0 mg/kg/injection, schedule: Q04DX003 (ip), vehicle: other) is reported as 107 % of control, the T/C (dose: 200.0 mg/kg/injection, schedule: Q04DX003 (ip), vehicle: other) is reported as 94 % of control and the T/C (dose: 400.0 mg/kg/injection, schedule: Q04DX003 (ip), vehicle: other) is reported as 102 % of control.
For `C[N+](C)(CCO)CC(O)c1ccc(C(O)C[N+](C)(C)CCO)cc1` (configuration not stated), the T/C (dose: 0.05 mg/kg/injection, schedule: Q04DX003 (ip), vehicle: saline) was 102 % of control, the T/C (dose: 0.1 mg/kg/injection, schedule: Q04DX003 (ip), vehicle: saline) was 104 % of control and the T/C (dose: 0.2 mg/kg/injection, schedule: Q04DX003 (ip), vehicle: saline) was 93 % of control.
In the case of `C#CCOCC1CNC(=O)O1` (configuration not stated), the T/C [11] is reported as 95 % of control, the T/C [5] is reported as 103 % of control and the T/C (dose: 50.0 mg/kg/injection, schedule: Q01DX009 (ip), vehicle: saline) is reported as 96 % of control. The T/C [15] was 105 % of control, the T/C [7] was 96 % of control and the T/C [16] was 97 % of control. For the same compound, the T/C (dose: 200.0 mg/kg/injection, schedule: Q01DX009 (ip), vehicle: saline) was 101 % of control, the T/C [17] was 100 % of control and the T/C (dose: 400.0 mg/kg/injection, schedule: Q01DX009 (ip), vehicle: saline) was 91 % of control. The T/C (dose: 400.0 mg/kg/injection, schedule: Q04DX003 (ip), vehicle: saline) was 105 % of control.
In the case of `O=C(Nc1ccc(Cl)c(Cl)c1)OCn1ncc2ccc([N+](=O)[O-])cc21`, the T/C [8] is reported as 96 % of control and the T/C [9] is reported as 100 % of control.
In the case of `N#CCN(CC#N)CCN(CC#N)CCN(CC#N)CC#N`, the T/C [6] is reported as 104 % of control, the T/C [8] is reported as 104 % of control and the T/C [9] is reported as 95 % of control.
With `CNCCc1cc2c(c(OC)c1/C=C/C(=O)/C=C/c1c(CCNC)cc3c(c1OC)OCO3)OCO2` the T/C (dose: 75.0 mg/kg/injection, schedule: Q01DX001 (ip), vehicle: carboxymethylcellulose (CMC)) was 100 % of control and the T/C (dose: 150.0 mg/kg/injection, schedule: Q01DX001 (ip), vehicle: carboxymethylcellulose (CMC)) was 100 % of control.
With `CC1CC(NC(=O)CC#N)CC(C)(C)C1` (configuration not stated) the T/C [10] was 93 % of control, the T/C (dose: 100.0 mg/kg/injection, schedule: Q01DX009 (ip), vehicle: saline with Tween-80) was 90 % of control and the T/C (dose: 100.0 mg/kg/injection, schedule: Q04DX002 (ip), vehicle: saline with Tween-80) was 94 % of control. The T/C (dose: 200.0 mg/kg/injection, schedule: Q01DX009 (ip), vehicle: saline with Tween-80) was 97 % of control and the T/C (dose: 200.0 mg/kg/injection, schedule: Q04DX002 (ip), vehicle: saline with Tween-80) was 102 % of control.
With `CC(C)C(C(=O)O)N(C)N=O` (configuration not stated) the T/C [15] was 94 % of control, the T/C (dose: 100.0 mg/kg/injection, schedule: Q01DX001 (ip), vehicle: acetone) was 101 % of control and the T/C [16] was 97 % of control. For the same compound, the T/C (dose: 200.0 mg/kg/injection, schedule: Q01DX001 (ip), vehicle: acetone) was 103 % of control and the T/C [17] was 94 % of control.
For `CC(=O)OCC1OC2OC(C)(C)OC2C1NC(=O)N(C)C(C)=O` (configuration not stated), the T/C (dose: 100.0 mg/kg/injection, schedule: Q04DX002 (ip), vehicle: saline) was 87 % of control, the T/C (dose: 200.0 mg/kg/injection, schedule: Q04DX002 (ip), vehicle: saline) was 103 % of control and the T/C (dose: 400.0 mg/kg/injection, schedule: Q04DX002 (ip), vehicle: saline) was 90 % of control.
In the case of `CCCCOP(=O)(/C=C/c1ccc([N+](=O)[O-])cc1)OCCCC`, the T/C [12] is reported as 97 % of control, the T/C [13] is reported as 93 % of control and the T/C [14] is reported as 108 % of control.
